US10927111B2, “Inhibitors of RAF kinases” (Kinnate Biopharma Inc., priority 2019, dated 2021)

Target: human RAF1 (Homo sapiens (Human), UniProt P04049)
Experiment: Protein kinase assay (radiometric 33P-ATP, MEK1 (K97R) substrate)
Type: biochemical
Conditions: human MEK1 (K97R) substrate 3 micromolar, ATP 10 micromolar, 10-dose IC50 mode; read-out: RAF-1 IC50
Experimental: Protein kinase assay: Assay platform was used to measure kinase/inhibitor interactions as described previously (Anastassiadis et al., 2011). In brief, for each reaction, kinase and substrate were mixed in a buffer containing 20 mM HEPES (pH 7.5), 10 mM MgCl2, 1 mM EGTA, 0.02% Brij35, 0.02 mg/mL BSA, 0.1 mM Na3VO4, 2 mM DTT, and 1% DMSO. All compounds were solubilized in DMSO. Compounds were then added to each reaction mixture via acoustic dispense using an ECHO 550 nanoliter dispenser. For human RAF1 testing, human MEK1 (K97R) was used as a substrate at a concentration of 3 micromolar, with a final ATP concentration of 10 micromolar. For human BRAF testing, human MEK1 (K97R) was used as a substrate at 1 micromolar concentration, with a final ATP concentration of 25 micromolar. […] After a 20-min incubation, ATP (Sigma-Aldrich, St. Louis, Mo. 63178) and [g33P] ATP (specific activity 10 microCi/microliter) purchased at PerkinElmer (Boston, Mass., 02118 Cat #BLU 003H250UC) were added at a final total concentration of 10 mM. Reactions were carried out at room temperature for 2 hr and spotted onto P81 ionexchange cellulose chromatography paper (Reaction Biology). Filter paper was washed in 0.75% phosphoric acid to remove unincorporated ATP. The percent remaining kinase activity relative to a vehicle-containing (DMSO) kinase reaction was calculated for each kinase/inhibitor pair. IC50 values were calculated using Prism 5 (GraphPad).

human RAF1, sequence (P04049 whole entry): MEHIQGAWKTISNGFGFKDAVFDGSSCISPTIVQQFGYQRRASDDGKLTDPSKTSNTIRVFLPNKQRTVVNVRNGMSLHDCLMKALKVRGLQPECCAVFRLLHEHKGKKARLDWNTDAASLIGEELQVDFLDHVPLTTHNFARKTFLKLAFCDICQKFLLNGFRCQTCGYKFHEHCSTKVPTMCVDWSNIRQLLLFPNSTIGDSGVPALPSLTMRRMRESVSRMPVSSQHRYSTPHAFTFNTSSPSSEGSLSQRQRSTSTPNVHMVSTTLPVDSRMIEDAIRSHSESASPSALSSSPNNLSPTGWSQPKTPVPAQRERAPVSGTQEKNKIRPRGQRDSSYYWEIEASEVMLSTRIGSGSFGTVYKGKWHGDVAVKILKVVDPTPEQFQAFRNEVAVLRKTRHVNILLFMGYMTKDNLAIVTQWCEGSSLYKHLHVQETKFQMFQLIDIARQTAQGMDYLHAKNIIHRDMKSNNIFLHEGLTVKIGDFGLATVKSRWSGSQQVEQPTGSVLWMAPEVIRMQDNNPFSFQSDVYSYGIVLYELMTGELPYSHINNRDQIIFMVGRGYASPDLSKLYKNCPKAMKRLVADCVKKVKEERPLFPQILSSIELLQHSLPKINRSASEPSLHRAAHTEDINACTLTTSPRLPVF

| Structure (SMILES) | IC50 |
| --- | --- |
| CNc1ncc2cc(-c3cc(NC(=O)c4cc(C)nc(C(F)(F)F)c4)ccc3C)c(C)nc2n1 [Example 34, 2-methyl-N-(4-methyl-3-(7-methyl-2-(methylamino)pyrido[2,3-d]pyrimidin-6-yl)phenyl)-6-(trifluoromethyl)isonicotinamide] | ≤ 10 nM |
| CNc1ncc2cc(-c3cc(NC(=O)c4ccnc(C(F)(F)F)c4)ccc3C)cnc2n1 [Example 53, N-[4-methyl-3-[2-(methylamino)pyrido[2,3-d]pyrimidin-6-yl]phenyl]-2-(trifluoromethyl)pyridine-4-carboxamide] | ≤ 10 nM |
| Cc1ccc(NC(=O)c2ccnc(C(F)(F)F)c2)cc1-c1cc2cnc(NCCN3CCOCC3)nc2nc1C [Example 38, N-(4-methyl-3-(7-methyl-2-((2-morpholinoethyl)amino)pyrido[2,3-d]pyrimidin-6-yl)phenyl)-2-(trifluoromethyl)isonicotinamide] | ≤ 10 nM |
| Cc1ccc(NC(=O)c2ccnc(C(F)(F)F)c2)cc1-c1cc2cnc(NC(=O)C3CC3)nc2nc1C [Example 49, N-(3-(2-(cyclopropanecarboxamido)-7-methylpyrido[2,3-d]pyrimidin-6-yl)-4-methylphenyl)-2-(trifluoromethyl)isonicotinamide] | ≤ 10 nM |
| CNc1ncc2cc(-c3cc(NC(=O)c4ccnc(C(F)(F)F)c4)cnc3C)cnc2n1 [Example 46, N-(6-methyl-5-(2-(methylamino)pyrido[2,3-d]pyrimidin-6-yl)pyridin-3-yl)-2-(trifluoromethyl)isonicotinamide] | ≤ 10 nM |
| CNc1ncc2cc(-c3cc(NC(=O)c4cccc(C(F)(F)F)c4)ccc3C)c(C)nc2n1 [Example 29, N-(4-methyl-3-(7-methyl-2-(methylamino)pyrido[2,3-d]pyrimidin-6-yl)phenyl)-3-(trifluoromethyl)benzamide] | ≤ 10 nM |
| CNc1ncc2cc(-c3cc(NC(=O)N4CC[C@@H](C(F)(F)F)C4)c(F)cc3C)c(C)nc2n1 [Example 2, (R)-N-(2-fluoro-4-methyl-5-(7-methyl-2-(methylamino)pyrido[2,3-d]pyrimidin-6-yl)phenyl)-3-(trifluoromethyl)pyrrolidine-1-carboxamide] | ≤ 10 nM |
| CNc1ncc2cc(-c3cc(NC(=O)c4cccc(C(F)(F)F)c4C)cnc3C)cnc2n1 [Example 47, 2-methyl-N-(6-methyl-5-(2-(methylamino)pyrido[2,3-d]pyrimidin-6-yl)pyridin-3-yl)-3-(trifluoromethyl)benzamide] | ≤ 10 nM |
| CNc1ncc2cc(-c3cc(NC(=O)N4CC=C(C(F)(F)F)C4)c(F)cc3C)c(C)nc2n1 [Example 3, N-(2-fluoro-4-methyl-5-(7-methyl-2-(methylamino)pyrido[2,3-d]pyrimidin-6-yl)phenyl)-3-(trifluoromethyl)-2,5-dihydro-1H-pyrrole-1-carboxamide] | ≤ 10 nM |
| CNc1ncc2cc(-c3cc(NC(=O)N4CC[C@@H](CC(F)(F)F)C4)c(F)cc3C)cnc2n1 [Example 31, (S)-N-(2-fluoro-4-methyl-5-(2-(methylamino)pyrido[2,3-d]pyrimidin-6-yl)phenyl)-3-(2,2,2-trifluoroethyl)pyrrolidine-1-carboxamide] | ≤ 10 nM |
| Cc1ccc(NC(=O)c2ccnc(C(F)(F)F)c2)cc1-c1cc2cnc(NC3CCN(C)CC3)nc2nc1C [Example 42, N-(4-methyl-3-(7-methyl-2-((1-methylpiperidin-4-yl)amino)pyrido[2,3-d]pyrimidin-6-yl)phenyl)-2-(trifluoromethyl)isonicotinamide] | ≤ 10 nM |
| CCNc1ncc2cc(-c3cc(NC(=O)c4ccnc(C(F)(F)F)c4)ccc3C)c(C)nc2n1 [Example 35, N-(3-(2-(ethylamino)-7-methylpyrido[2,3-d]pyrimidin-6-yl)-4-methylphenyl)-2-(trifluoromethyl)isonicotinamide] | ≤ 10 nM |

Other lines, results leading:

| IC50 | Structure (SMILES) |
| --- | --- |
| ≤ 10 nM | CNc1ncc2cc(-c3cc(NC(=O)N4CC[C@@H](OC(F)(F)F)C4)ccc3C)c(C#N)nc2n1 [Example 78, (3R)—N-[3-[7-cyano-2-(methylamino)pyrido[2,3-d]pyrimidin-6-yl]-4-methylphenyl]-3-(trifluoromethoxy)pyrrolidine-1-carboxamide] |
| ≤ 10 nM | CNc1ncc2cc(-c3cc(NC(=O)N4CC[C@H](OC(F)(F)F)C4)c(F)cc3C)cnc2n1 [Example 59] |
| ≤ 10 nM | CNc1ncc2cc(-c3cc(NC(=O)N4CCO[C@H](C(F)(F)F)C4)ccc3C)cnc2n1 [Example 57] |
| ≤ 10 nM | CNc1ncc2cc(-c3cc(NC(=O)N4CCC(C(F)(F)F)C4)ccc3C)cnc2n1 (stereo in doubt) [Example 54, (3R)—N-[4-methyl-3-[2-(methylamino)pyrido[2,3-d]pyrimidin-6-yl]phenyl]3(trifluoromethyl)pyrrolidine-1-carboxamide] |
| ≤ 10 nM | CNc1ncc2cc(-c3cc(NC(=O)N4CCO[C@H](C(F)(F)F)C4)c(F)cc3C)cnc2n1 [Example 61, (2S)-N-[2-fluoro-4-methyl-5-[2-(methylamino)pyrido[2,3-d]pyrimidin-6-yl]phenyl]-2-(trifluoromethyl)morpholine-4-carboxamide] |

Same assay, conditions: read-out: RAF-1 IC50

| Structure (SMILES) | IC50 |
| --- | --- |
| CNc1ncc2cc(-c3cc(NC(=O)N4CCO[C@@H](CC(F)(F)F)C4)c(F)cc3C)c(C)nc2n1 [Example 26, (S)-N-(2-fluoro-4-methyl-5-(7-methyl-2-(methylamino)pyrido[2,3-d]pyrimidin-6-yl)phenyl)-2-(2,2,2-trifluoroethyl)morpholine-4-carboxamide] | ≤ 10 nM |
| CNc1ncc2cc(-c3cc(NC(=O)N4CC[C@@H](CC(F)(F)F)C4)c(F)cc3C)c(C)nc2n1 [Example 18, (S)-N-(2-fluoro-4-methyl-5-(7-methyl-2-(methylamino)pyrido[2,3-d]pyrimidin-6-yl)phenyl)-3-(2,2,2-trifluoroethyl)pyrrolidine-1-carboxamide] | ≤ 10 nM |
| [2H]C([2H])([2H])Nc1ncc2cc(-c3cc(NC(=O)c4ccnc(C(F)(F)F)c4)ccc3C)c(C)nc2n1 [Example 43, N-(4-methyl-3-(7-methyl-2-((trideuteromethyl)amino)pyrido[2,3-d]pyrimidin-6-yl)phenyl)-2-(trifluoromethyl)isonicotinamide] | ≤ 10 nM |
| CNc1ncc2cc(-c3cc(NC(=O)N4CC[C@@H](SC(F)(F)F)C4)ccc3C)c(C)nc2n1 [Example 4] | 10 to 100 nM |
| CNc1ncc2cc(-c3cc(NC(=O)N4CC[C@H](SC(F)(F)F)C4)ccc3C)c(C)nc2n1 [Example 5] | 10 to 100 nM |

Second part, the molecule after the results:

| IC50 | Structure (SMILES) |
| --- | --- |
| ≤ 10 nM | [2H]C([2H])([2H])c1nc2nc(NC)ncc2cc1-c1cc(NC(=O)c2ccnc(C(F)(F)F)c2)ccc1C [Example 74, N-(4-methyl-3-(7-(methyl-d3)-2-(methylamino)pyrido[2,3-d]pyrimidin-6-yl)phenyl)-2-(trifluoromethyl)isonicotinamide] |
| ≤ 10 nM | [2H]C([2H])([2H])Nc1ncc2cc(-c3cc(NC(=O)c4ccnc(C(F)(F)F)c4)ccc3C)c(C([2H])([2H])[2H])nc2n1 [Example 75, N-(4-methyl-3-(7-(methyl-d3)-2-((methyl-d3)amino)pyrido[2,3-d]pyrimidin-6-yl)phenyl)-2-(trifluoromethyl)isonicotinamide] |
| ≤ 10 nM | [2H]C([2H])([2H])Oc1nc2nc(NC)ncc2cc1-c1cc(NC(=O)c2ccnc(C(F)(F)F)c2)ccc1C [Example 71, N-(3-(7-(methoxy-d3)-2-(methylamino)pyrido[2,3-d]pyrimidin-6-yl)-4-methylphenyl)-2-(trifluoromethyl)isonicotinamide] |
